The test deals with m-IMCD3 cells. In words: Inhibition of PGE2-stimulated in vitro cyst formation in 3D culture of m-IMCD3 cells (Experiment 4). The format is cell-based, mouse. Particulars: Mus musculus, mIMCD3, 144 h, 10 μM test compound, mean cyst area compared to 100% for (DMSO + PGE2) and 0% for DMSO control, read-out: % Cyst area* after incubation with 10 μM test compound. Here is the method: HEK 293 and MDCK cells (Public Health England, Cell Culture Collections) were maintained in Dulbecco's Modified Eagle's Medium (DMEM) supplemented with 10% (v/v) fetal bovine serum (FBS) (Seralab), 2 mM L-glutamine and 100 U/ml penicillin streptomycin cocktail (ThermoFisher); termed complete media. Clonal HEK 293 cell lines were maintained in complete media supplemented with 0.6 mg/mL G418 (Enzo Life Sciences). Mouse inner medullary collecting duct (m-IMCD3) cells [American Type Culture Collection (ATCC)] were maintained in media consisting of DMEM/Hams F-12 50/50 Mix (DMEM F12; Corning) supplemented with penicillin streptomycin cocktail (100 U/ml) and FBS (10% v/v) (DMEM F12-10% FBS).
The mouse Inner Medullary Collecting Duct cell line (m-IMCD3) spontaneously forms cystic spheroids in 3D culture with a Type 1 collagen/Matrigel extracellular matrix. This process can be stimulated with agents which raise intracellular cAMP and is used as an in vitro model for the formation of cystic structures in the kidneys of patients with ADPKD.
Rat Collagen I (Fisher Scientific) is prepared on ice by neutralising with 1 M NaOH and diluting with a 2×volume of DMEM/F12+10% FBS. This is mixed 1:1.1 with ice cold Matrigel (Corning) for coating plates (coating mix), and 1:0.93 with Matrigel for cell plating (plating mix).
The assay is conducted in the wells of a 96-well plate culture dish using a total volume of 130 μL of collagen/Matrigel/DMEM F12-10% FBS suspension in growth media for each matrix plug per individual well. Initially, 30 μL of collagen/Matrigel/DMEM F12-10% FBS (coating mix) is added into the well of a 96 well plate and the collagen is set to a gel by incubating at 37° C. for at least 15 minutes. A second layer of 100 μL collagen/Matrigel suspension (plating mix) containing m-IMCD3 cells (2.75×10^6 m-IMCD3 cells per 96-well plate) is layered over the coating mix and the collagen/Matrigel/cell mix again set to a gel by incubating at 37° C. Cell cultures are maintained at 37° C. in an atmosphere of 5% CO2, 95% air.
Between 18 and 24 h after plating, test compound(s) as DMSO stock solutions [0.1% (v/v) final DMSO concentration] and PGE2 (100 nM final concentration) in DMEM F12-10% FBS are added in quadruplicate wells per condition. Media, together with the test compound and PGE2 are replenished after 2 or 3 days. After 6 days of culture z stack images of the wells are captured using the Nikon Eclipse Ti2-E microscope. Nikon General Analysis software is used to measure the following parameters in each well: the mean cyst area, the number of cysts, and the total cyst area.
PDE4 long form activators inhibited in vitro cyst formation in m-IMCD3 cells. Data are shown in FIG. 2 and Table 4 as mean cyst area (%), compared to 100% for (DMSO+PGE2) and 0% for DMSO control.

`CN1CCN(c2cc3ncc(C(=O)NC4CCCCC4)cn3n2)CC1` [Example 77, N-cyclohexyl-2-(4-methylpiperazin-1-yl)pyrazolo[1,5-a]pyrimidine-6-carboxamide]: the activity at 10 µM amounted to 0%.
For the molecule `Cc1ccncc1-c1nc2cc(C(=O)N[C@H]3CCOc4ccccc43)ccc2[nH]1` [Example 1, (S)—N-(chroman-4-yl)-2-(4-methylpyridin-3-yl)-1H-benzo[d]imidazole-5-carboxamide], the activity at 10 µM was found to be 26%.
In the case of `CN1CCN(c2cc3ncc(C(=O)N[C@H]4CCOc5ccccc54)cn3n2)CC1` [Example 69, (S)—N-(chroman-4-yl)-2-(4-methylpiperazin-1-yl)pyrazolo[1,5-a]pyrimidine-6-carboxamide] it was 7%.
As to `Cn1c(N2CCNCC2)nc2cc(C(=O)N[C@H]3CCOc4ccccc43)ccc21` [Example 33, (S)—N-(chroman-4-yl)-1-methyl-2-(piperazin-1-yl)-1H-benzo[d]imidazole-5-carboxamide], the activity at 10 µM came to 19%.
To `O=C(N[C@H]1CCOc2ccccc21)c1cnc2cc(N3CCNCC3)nn2c1` [Example 68, (S)—N-(chroman-4-yl)-2-(piperazin-1-yl)pyrazolo[1,5-a]pyrimidine-6-carboxamide] belongs 9%.
To `CC(C)N1CCN(c2nc3cc(C(=O)N[C@H]4CCOc5ccccc54)ccn3n2)CC1` [Example 61, (S)—N-(chroman-4-yl)-2-(4-isopropylpiperazin-1-yl)-[1,2,4]triazolo[1,5-a]pyridine-7-carboxamide] belongs 10%.
In the case of `CN1CCN(c2cc3ncc(C(=O)NC4CCCC4)cn3n2)CC1` [Example 76, N-cyclopentyl-2-(4-methylpiperazin-1-yl)pyrazolo[1,5-a]pyrimidine-6-carboxamide] it was 9%; in that of `CCN1CCC(c2cc3ncc(C(=O)N[C@H]4CCOc5ccccc54)cn3n2)CC1` [Example 84, (S)—N-(chroman-4-yl)-2-(1-ethylpiperidin-4-yl)pyrazolo[1,5-a]pyrimidine-6-carboxamide], 7%.
With `O=C(NC1CCCC1)c1ccc2oc(N3CCNCC3)nc2c1` [Example 101, N-cyclopentyl-2-(piperazin-1-yl)benzo[d]oxazole-5-carboxamide], the activity at 10 µM worked out at 21%.
In the case of `Cc1ncccc1-c1nc2cc(C(=O)N[C@H]3CCOc4ccccc43)ccc2n1C` [Example 22, (S)—N-(chroman-4-yl)-1-methyl-2-(2-methylpyridin-3-yl)-1H-benzo[d]imidazole-5-carboxamide] it was 18%; in that of `CCN1CCC(c2cc3ncc(C(=O)NC4CCC(F)(F)CC4)c(C)n3n2)CC1` [Example 94, N-(4,4-difluorocyclohexyl)-2-(1-ethylpiperidin-4-yl)-7-methylpyrazolo[1,5-a]pyrimidine-6-carboxamide], 13%; in that of `Cc1c(C(=O)NC2CCC(F)(F)CC2)cnc2cc(C3CCN(C)CC3)nn12` [Example 96, N-(4,4-difluorocyclohexyl)-7-methyl-2-(1-methylpiperidin-4-yl)pyrazolo[1,5-a]pyrimidine-6-carboxamide], 11%.
Take `CN1CCC(c2nc3ccc(C(=O)N[C@H]4CCOc5ccccc54)cn3n2)CC1` [Example 50, (S)—N-(chroman-4-yl)-2-(1-methylpiperidin-4-yl)-[1,2,4]triazolo[1,5-a]pyridine-6-carboxamide]: the activity at 10 µM came to 6%.
Turning to `Cc1ncccc1-c1nc2cc(C(=O)N[C@H]3CCOc4ccccc43)ccn2n1` [Example 52, (S)—N-(chroman-4-yl)-2-(2-methylpyridin-3-yl)-[1,2,4]triazolo[1,5-a]pyridine-7-carboxamide], the activity at 10 µM came out at 19%.
For the molecule `O=C(NC1CCC(F)(F)CC1)c1cc2sc(N3C4CCC3CNC4)nc2cn1` [Example 120, 2-(3,8-diazabicyclo[3.2.1]octan-8-yl)-N-(4,4-difluorocyclohexyl)thiazolo[4,5-c]pyridine-6-carboxamide], the activity at 10 µM was found to be 29%.
For `CN1CCN(c2nc3cc(C(=O)N[C@H]4CCc5ccccc54)ccn3n2)CC1` [Example 64, (S)—N-(2,3-dihydro-1H-inden-1-yl)-2-(4-methylpiperazin-1-yl)-[1,2,4]triazolo[1,5-a]pyridine-7-carboxamide], the activity at 10 µM stood at 1%.
To `O=C(N[C@H]1CCOc2ccccc21)c1ccn2nc(N3CCCCC3)nc2c1` [Example 59, (S)—N-(chroman-4-yl)-2-(piperidin-1-yl)-[1,2,4]triazolo[1,5-a]pyridine-7-carboxamide] belongs 26%; to `CN1CCC(c2cc3ncc(C(=O)NC4CCCCC4)cn3n2)CC1` [Example 86, N-cyclohexyl-2-(1-methylpiperidin-4-yl)pyrazolo[1,5-a]pyrimidine-6-carboxamide], 7%; to `CC(C)N1CCN(c2nc3ccc(C(=O)N[C@H]4CCOc5ccccc54)cn3n2)CC1` [Example 46, (S)—N-(chroman-4-yl)-2-(4-isopropylpiperazin-1-yl)-[1,2,4]triazolo[1,5-a]pyridine-6-carboxamide], 4%.
In the case of `CCN1CCN(c2nc3cc(C(=O)N[C@H]4CCOc5ccccc54)ccc3o2)CC1` [Example 102, (S)—N-(chroman-4-yl)-2-(4-ethylpiperazin-1-yl)benzo[d]oxazole-5-carboxamide] it was 8%; in that of `Cc1c(C(=O)N[C@H]2CCOc3ccccc32)cnc2cc(C3CCN(C)CC3)nn12` [Example 95, N-[(4S)-3,4-dihydro-2H-1-benzopyran-4-yl]-7-methyl-2-(1-methylpiperidin-4-yl)pyrazolo[1,5-a]pyrimidine-6-carboxamide], 13%; in that of `Cc1ccc(-c2nc3cc(C(=O)N[C@H]4CCOc5ccccc54)ccc3n2C)cn1` [Example 21, (S)—N-(chroman-4-yl)-1-methyl-2-(6-methylpyridin-3-yl)-1H-benzo[d]imidazole-5-carboxamide], 3%.
In the case of `O=C(N[C@H]1CCOc2ccccc21)c1cnc2cc(C3CCNCC3)nn2c1` [Example 82, (S)—N-(chroman-4-yl)-2-(piperidin-4-yl)pyrazolo[1,5-a]pyrimidine-6-carboxamide] it was 3%; in that of `O=C(NC1CCCC1)c1cnc2cc(N3C4CCC3CNC4)nn2c1` [Example 80, 2-(3,8-diazabicyclo[3.2.1]octan-8-yl)-N-cyclopentylpyrazolo[1,5-a]pyrimidine-6-carboxamide], 14%; in that of `Cc1cncc(-c2nc3cc(C(=O)N[C@H]4CCOc5ccccc54)ccc3n2C)c1` [Example 23, (S)—N-(chroman-4-yl)-1-methyl-2-(5-methylpyridin-3-yl)-1H-benzo[d]imidazole-5-carboxamide], 12%.
With `CCN1CCN(c2nc3cc(C(=O)NC4CCCC4)ccc3o2)CC1` [Example 103, N-cyclopentyl-2-(4-ethylpiperazin-1-yl)benzo[d]oxazole-5-carboxamide], the activity at 10 µM was -1%.
In the case of `O=C(NC1CCCC1)c1ccc2nc(N3C4CCC3CNC4)cn2c1` [Example 67, 2-(3,8-diazabicyclo[3.2.1]octan-8-yl)-N-cyclopentylimidazo[1,2-a]pyridine-6-carboxamide] it was 27%.
